BindingDB's records for doi:10.7270/Q2VX0F3D (Burnham Center For Chemical Genomics, 2012)

Molecular target: T1, Corticotropin-releasing factor-binding protein (Homo sapiens, UniProt P24387)
T1 sequence (P24387 whole entry): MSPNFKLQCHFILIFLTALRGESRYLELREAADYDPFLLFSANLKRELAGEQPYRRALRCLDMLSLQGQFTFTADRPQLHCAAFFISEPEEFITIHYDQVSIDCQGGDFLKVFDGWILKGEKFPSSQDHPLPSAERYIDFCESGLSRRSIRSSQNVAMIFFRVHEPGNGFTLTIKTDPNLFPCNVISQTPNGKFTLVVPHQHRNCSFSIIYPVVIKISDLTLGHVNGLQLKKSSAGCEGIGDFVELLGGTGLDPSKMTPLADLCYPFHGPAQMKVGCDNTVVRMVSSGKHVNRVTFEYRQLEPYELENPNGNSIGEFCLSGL
Assay: activators of CRF receptor 2 with binding protein – uHTS hits, confirmation (AID 602473)

Compound | EC50
Cc1ccc(C)c2sc(NC(=O)c3ccc(-n4c(O)ccc4O)cc3)nc12 [N-(4,7-dimethyl-1,3-benzothiazol-2-yl)-4-(2,5-dioxopyrrolidin-1-yl)benzamide] | > 53 µM
COc1ccc(Cn2cc(O)n(-c3cccc(Cl)c3)c2=S)cc1OC [SMR000564410] | > 53 µM
COc1cc2c(cc1OC)C(CC(=O)c1ccc(OC)c([N+](=O)[O-])c1)=NCC2 | > 53 µM
COc1ccccc1NS(=O)(=O)c1ccc(N=NCc2c(C)nn(-c3ccccc3)c2N2CCCC2)c([N+](=O)[O-])c1 [N-(2-methoxyphenyl)-4-[(2E)-2-[(3-methyl-1-phenyl-5-pyrrolidin-1-yl-pyrazol-4-yl)methylidene]hydrazinyl]-3-nitro-benzenesulfonamide] | > 53 µM
O=c1nncc(N=NC=CCc2ccccc2)[nH]1 [SMR000413415] | > 53 µM
CCCCN1C(=O)NC(=O)C(C(=O)C=Cc2c[nH]c3ccccc23)C1=O (stereo not drawn) [(5Z)-1-butyl-5-[(E)-3-(1H-indol-3-yl)-1-oxidanyl-prop-2-enylidene]-1,3-diazinane-2,4,6-trione] | 6.02 µM
Cc1ccc2oc(=O)c(CC(=O)c3sc(C)nc3C)nc2c1 [(3Z)-3-[2-(2,4-dimethyl-1,3-thiazol-5-yl)-2-oxidanylidene-ethylidene]-6-methyl-4H-1,4-benzoxazin-2-one] | 7.67 µM
COc1ccc(C(C)N=Nc2ccc([N+](=O)[O-])cc2S(=O)(=O)Nc2ccccc2C(=O)O)c(OC)c1 (stereo not drawn) [MLS002249507] | 38.6 µM
Oc1nc(N=NCc2ccc(F)cc2)sc1-c1ccccc1 [2-{N'-[1-(4-Fluoro-phenyl)-meth-(E)-ylidene]-hydrazino}-5-phenyl-thiazol-4-one] | > 53 µM
CCCC(NCC(=O)O)=C1C(=O)CC(C)(C)C(C(=O)OC)C1=O (stereo not drawn) [MLS000108316] | > 53 µM
O=NC(N1CCOCC1)P(=O)(N1CCOCC1)N1CCOCC1 (stereo not drawn) [bis(4-morpholinyl)phosphoryl-(4-morpholinyl)methanone oxime] | > 53 µM
C=C1C(c2ccc(Cl)cc2)=[N+](O)C(c2ccccc2)=CN1[O-] [2-(4-chlorophenyl)-3-methyl-4-oxido-6-phenylpyrazin-1-ium 1-oxide] | > 53 µM
Cc1c(Cl)ccc2c1NC(=O)C21NC(CCC(N)=O)c2c1c(O)n(-c1ccc(Cl)cc1)c2O (stereo not drawn) [MLS000083515] | > 53 µM
Cc1ccc(-n2c(O)c3n(-c4ccccc4)[nH]c(C(=O)c4ccccc4)c-3c2=O)cc1 | 22.2 µM
N#CC(C(=O)COC(=O)COc1cccc(Br)c1)c1nc2ccccc2[nH]1 (stereo not drawn) [MLS000391269] | > 53 µM
Clc1ccc(C2=Nc3ncnn3C(c3ccco3)C2)cc1 (stereo not drawn) | 8.29 µM
CCCC1=Nc2nc(C)nn2C(c2cccnc2)C1C(=O)OCC (stereo not drawn) [2-methyl-5-propyl-7-(3-pyridinyl)-1,7-dihydro-[1,2,4]triazolo[1,5-a]pyrimidine-6-carboxylic acid ethyl ester] | > 53 µM
CCCCCCC1=Cc2c/c(=C(/N)NNC(=O)c3ccncc3)c(=O)oc2=CC1=O | 1.11 µM
CCOC(=O)C1CCCN(c2cc(O)n(-c3ccccc3)c2O)C1 (stereo not drawn) [ethyl 1-(2,5-dioxo-1-phenylpyrrolidin-3-yl)piperidine-3-carboxylate] | > 53 µM
CC1C2=C(CC(C)(C)CC2=O)N=C2CC(C)(C)CC(=O)C21 (stereo not drawn) [3,3,6,6,9-pentamethyl-2,4,5,7,9,10-hexahydroacridine-1,8-dione] | > 53 µM
CCOc1ccc(C2C(C#N)=C3Sc4ccccc4N3C(=N)C2C#N)cc1 (stereo not drawn) [1-amino-3-(4-ethoxyphenyl)-3H-pyrido[2,1-b][1,3]benzothiazole-2,4-dicarbonitrile] | 8.06 µM
O=C1CC(c2ccccc2)C(c2ccccc2)C1=O (stereo not drawn) [5-oxidanyl-3,4-diphenyl-cyclopent-2-en-1-one] | > 53 µM

Compound | EC50
O=c1c(CN=Nc2ccccc2)c(Sc2nnnn2-c2ccccc2)nc2ccccn12 [3-[(phenylhydrazinylidene)methyl]-2-(1-phenyltetrazol-5-yl)sulfanylpyrido[1,2-a]pyrimidin-4-one] | 10.1 µM
O=C(Cc1sc(N=NC=CCc2ccccc2)nc1O)Nc1ccc(Cl)c(Cl)c1 | > 53 µM
Cc1ccc(CSC(=Nc2ccc(F)cc2)C(C#N)C#N)cc1 [SMR000217751] | > 53 µM
COc1ccc(C2=Nc3ncnn3C(c3ccco3)C2)cc1 (stereo not drawn) [7-(2-furanyl)-5-(4-methoxyphenyl)-1,7-dihydro-[1,2,4]triazolo[1,5-a]pyrimidine] | 4.53 µM
N#CC(C(=O)c1cccc(F)c1)c1nc2ccccc2s1 (stereo not drawn) [(2Z)-2-(3H-1,3-benzothiazol-2-ylidene)-3-(3-fluorophenyl)-3-keto-propionitrile] | > 53 µM
COc1ccc(C2c3c(n(C)c(=O)n(C)c3=O)N=C3CC(C)(C)CC(=O)C32)cc1OC (stereo not drawn) [SMR000291470] | > 53 µM
Cn1c(SCC(=O)N/N=C/C2C=C([N+](=O)[O-])C=CC2=O)nnc1-c1ccccc1 (stereo not drawn) [MLS000777077] | > 53 µM
CN(C)c1ccc(C=Nn2c(O)csc2=S)c(Cl)c1 [MLS002919800] | > 53 µM
O=NCc1ccc(Oc2ccc(F)cc2)c([N+](=O)[O-])c1 [N-[[4-(4-fluorophenoxy)-3-nitrophenyl]methylidene]hydroxylamine] | > 53 µM
CC1(C)CC(=O)C(C2C3=C(CC(C)(C)CC3=O)Oc3c(Br)cc(Br)cc32)C(=O)C1 (stereo not drawn) [5,7-bis(bromanyl)-9-(4,4-dimethyl-2-oxidanyl-6-oxidanylidene-cyclohexen-1-yl)-3,3-dimethyl-4,9-dihydro-2H-xanthen-1-one] | 10.3 µM
COc1ccc(C2=Nc3nnnn3C(c3cccc(OC)c3)C2)cc1 (stereo not drawn) [MLS000036434] | > 53 µM
CCCCN(C(=O)c1ccc2c(c1)S(=O)(=O)NC1=CCCCCN12)c1c(N)n(CCCC)c(=O)[nH]c1=O [N-(6-amino-1-butyl-2,4-dioxo-5-pyrimidinyl)-N-butyl-5,5-dioxo-8,9,10,11-tetrahydro-7H-azepino[2,1-c][1,2,4]benzothiadiazine-3-carboxamide] | > 53 µM
O=C1C=Cc2cc(=C3C=CCC=N3)c(=O)oc2=C1CN1CCN(CCO)CC1 [SMR000298878] | 6.05 µM
Fc1ccc(Br)cc1C1CC(c2ccc(Br)cc2)=Nc2ncnn21 (stereo not drawn) [7-(5-bromo-2-fluorophenyl)-5-(4-bromophenyl)-1,7-dihydro-[1,2,4]triazolo[1,5-a]pyrimidine] | > 53 µM
COc1ccc(C2c3ccc(O)cc3OC(=N)C2C#N)cc1C (stereo not drawn) [2-amino-7-hydroxy-4-(4-methoxy-3-methylphenyl)-4H-1-benzopyran-3-carbonitrile] | > 53 µM
Cc1ccc2oc(=O)c(CC(=O)c3ccccc3)nc2c1 [(3Z)-6-methyl-3-(2-oxo-2-phenylethylidene)-3,4-dihydro-2H-1,4-benzoxazin-2-one] | 12.1 µM
Cc1nn(-c2ccccc2)c(N2CCCC2)c1CN=Nc1ccc(S(N)(=O)=O)cc1[N+](=O)[O-] [SMR000243538] | > 53 µM
Cc1ccc2oc(=O)c(CC(=O)c3cccs3)nc2c1 [(3Z)-3-[2-keto-2-(2-thienyl)ethylidene]-6-methyl-4H-1,4-benzoxazin-2-one] | 4.87 µM
N#CC(C1=NCCC1)c1nc2ccccc2c(=O)[nH]1 (stereo not drawn) [(2Z)-2-(4-oxo-1H-quinazolin-2-yl)-2-(2-pyrrolidinylidene)acetonitrile] | > 53 µM
Cc1ccc(-n2c(O)cc(=O)[nH]c2=O)c(C)c1 | > 53 µM
Cc1ccc(C(=O)Cc2nc3ccccc3oc2=O)cc1 [(3Z)-3-[2-(4-methylphenyl)-2-oxidanylidene-ethylidene]-4H-1,4-benzoxazin-2-one] | 11.4 µM
